Measurements reported in ChEMBL document CHEMBL1201862, “PubChem BioAssay data set” (2004).
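How tested: cells in 96-well plates exposed to compound for 48 hours at five concentrations. GI50: concentration for 50% inhibition of growth.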 Calls of active or inactive are those of the source. Cut-off read from the data, not from the text of the source: active = GI50 up to about 1.1 µM and inactive = higher.

Columns and labels:
Assay in all cases: inhibition of tumour cell growth, NCI panel, 48 h
NCI-H23 = system: NCI-H23
SNB-19 = system: SNB-19
SF-268 = system: SF-268
HCC 2998 = system: HCC 2998
KM12 = system: KM12
K562 = system: K562
UO-31 = system: UO-31
SR = system: SR
CCRF-CEM = system: CCRF-CEM
CAKI-1 = system: CAKI-1
TK-10 = system: TK-10
M14 = system: M14
NCI-H460 = system: NCI-H460
MOLT-4 = system: MOLT-4
SF-295 = system: SF-295
T47D = system: T47D
PC-3 = system: PC-3
HT-29 = system: HT-29
LOX IMVI = system: LOX IMVI
HCT-116 = system: HCT-116

Measured: GI50

COc1ccc(C(CC(=O)c2ccccc2)C(=O)c2ccc3c(c2)OCO3)cc1 (stereo not drawn)
inactive: NCI-H23 > 100 µM | SNB-19 > 100 µM | SF-268 > 100 µM | HCC 2998 > 100 µM | KM12 > 100 µM | K562 > 100 µM | UO-31 > 100 µM | SR > 100 µM | CCRF-CEM > 100 µM | CAKI-1 > 100 µM | TK-10 > 100 µM | M14 > 100 µM | NCI-H460 > 100 µM | MOLT-4 > 100 µM | SF-295 > 100 µM | T47D 77.3 µM | PC-3 > 100 µM

N#CC(NCCO)=C1C(=O)c2ccccc2C1=O
inactive: NCI-H23 > 100 µM | SNB-19 > 100 µM | SF-268 > 100 µM | KM12 > 100 µM | K562 > 100 µM | UO-31 > 100 µM | SR > 100 µM | CAKI-1 > 100 µM | TK-10 > 100 µM | HT-29 > 100 µM | M14 > 100 µM | NCI-H460 > 100 µM | MOLT-4 > 100 µM | LOX IMVI > 100 µM | HCT-116 > 100 µM | SF-295 > 100 µM | T47D > 100 µM | PC-3 > 100 µM

O=C(O)C1(C(=O)O)CCN(S(=O)(=O)c2ccccc2)CC1
inactive: NCI-H23 > 100 µM | SNB-19 > 100 µM | SF-268 > 100 µM | KM12 > 100 µM | K562 > 100 µM | UO-31 > 100 µM | SR > 100 µM | CCRF-CEM > 100 µM | CAKI-1 > 100 µM | TK-10 > 100 µM | HT-29 > 100 µM | M14 > 100 µM | NCI-H460 > 100 µM | MOLT-4 > 100 µM | LOX IMVI > 100 µM | HCT-116 > 100 µM | SF-295 > 100 µM | T47D > 100 µM | PC-3 > 100 µM

OC1(c2ccccc2)CCN(Cc2c[nH]c3ccccc23)CC1
inactive: NCI-H23 96.6 µM | SNB-19 > 100 µM | SF-268 > 100 µM | HCC 2998 17.8 µM | KM12 75.3 µM | K562 33.2 µM | UO-31 31 µM | CCRF-CEM > 100 µM | CAKI-1 > 100 µM | TK-10 > 100 µM | HT-29 42.9 µM | M14 17.5 µM | NCI-H460 49.1 µM | MOLT-4 39.2 µM | LOX IMVI 76.4 µM | HCT-116 40.5 µM | SF-295 92.7 µM | T47D 35.6 µM | PC-3 > 100 µM

CC1=C(O)C(=O)C2=C(C1=O)[C@@H]([C@@H](C)C/C=C/C(C)(C)O)CC[C@@H]2C
inactive: NCI-H23 49.2 µM | SNB-19 83.6 µM | SF-268 30.7 µM | KM12 31.2 µM | K562 41.1 µM | UO-31 62.2 µM | SR 35.3 µM | CCRF-CEM 28.8 µM | CAKI-1 37.9 µM | HT-29 69.3 µM | M14 61 µM | NCI-H460 55.5 µM | MOLT-4 35.9 µM | LOX IMVI 29.6 µM | HCT-116 38.1 µM | SF-295 44.3 µM | T47D 27.2 µM | PC-3 51.1 µM

Cc1nc(N(C(C)C)C(C)C)c(C(C)C)o1
inactive: NCI-H23 > 100 µM | SNB-19 > 100 µM | SF-268 > 100 µM | HCC 2998 > 100 µM | KM12 > 100 µM | K562 > 100 µM | UO-31 > 100 µM | CCRF-CEM > 100 µM | CAKI-1 > 100 µM | TK-10 > 100 µM | HT-29 > 100 µM | M14 > 100 µM | NCI-H460 > 100 µM | MOLT-4 > 100 µM | LOX IMVI > 100 µM | HCT-116 > 100 µM | SF-295 > 100 µM | T47D > 100 µM | PC-3 > 100 µM

C=C(CCOC)CCC1CCCCC(=C)[C@H]1O (stereo partly drawn)
inactive: NCI-H23 > 100 µM | SNB-19 > 100 µM | SF-268 > 100 µM | KM12 > 100 µM | K562 > 100 µM | UO-31 > 100 µM | SR > 100 µM | CCRF-CEM > 100 µM | CAKI-1 > 100 µM | TK-10 > 100 µM | HT-29 > 100 µM | M14 > 100 µM | NCI-H460 > 100 µM | MOLT-4 > 100 µM | HCT-116 > 100 µM | SF-295 > 100 µM | T47D > 100 µM | PC-3 > 100 µM

CC(C)(C)OC(=O)n1c(Cl)c(C=O)c2ccccc21
inactive: NCI-H23 23.3 µM | SNB-19 86.1 µM | SF-268 17.9 µM | KM12 18.4 µM | K562 38.7 µM | UO-31 19.1 µM | SR 31.2 µM | CCRF-CEM 27.9 µM | CAKI-1 17.2 µM | TK-10 25.6 µM | HT-29 30.5 µM | M14 34.8 µM | NCI-H460 21.2 µM | MOLT-4 51.8 µM | LOX IMVI 26.4 µM | SF-295 63.2 µM | T47D 30.6 µM | PC-3 22 µM

CC(=O)C1=C(C)N2C(=NC3=C(CCc4ccccc43)C2c2ccc(Cl)cc2)S1 (stereo not drawn)
inactive: NCI-H23 71.1 µM | SNB-19 > 100 µM | SF-268 > 87.9 µM | HCC 2998 5.69 µM | KM12 33.3 µM | K562 2.05 µM | UO-31 > 53.7 µM | CCRF-CEM 8.41 µM | CAKI-1 > 100 µM | TK-10 > 100 µM | HT-29 7.45 µM | M14 > 40.4 µM | NCI-H460 16.1 µM | MOLT-4 3.8 µM | LOX IMVI > 81.1 µM | HCT-116 5.85 µM | SF-295 > 100 µM | T47D 5.53 µM | PC-3 10.2 µM

CCOc1nc(N)nc(C)c1/N=N/c1ccc(Cl)cc1
inactive: NCI-H23 > 100 µM | SNB-19 > 100 µM | SF-268 > 100 µM | KM12 > 100 µM | K562 48.5 µM | UO-31 45 µM | SR 1.86 µM | CCRF-CEM 41.3 µM | CAKI-1 > 100 µM | TK-10 > 100 µM | HT-29 > 100 µM | M14 > 100 µM | NCI-H460 > 100 µM | MOLT-4 10.7 µM | LOX IMVI > 100 µM | HCT-116 > 100 µM | SF-295 25.5 µM | T47D 73.8 µM | PC-3 82.8 µM

O=C(O)C(C1NCCS1)N1C(=O)c2ccccc2C1=O (stereo not drawn)
inactive: NCI-H23 > 100 µM | SNB-19 > 100 µM | SF-268 > 100 µM | KM12 > 100 µM | K562 > 100 µM | UO-31 > 100 µM | SR > 100 µM | CCRF-CEM > 100 µM | CAKI-1 > 100 µM | TK-10 > 100 µM | HT-29 > 100 µM | M14 > 100 µM | NCI-H460 > 100 µM | MOLT-4 > 100 µM | LOX IMVI > 100 µM | HCT-116 > 100 µM | SF-295 > 100 µM | T47D > 100 µM | PC-3 > 100 µM
